Experimental data from paper PMC7047876, “Potent Chimeric Antimicrobial Derivatives of the Medicago truncatula NCR247 Symbiotic Peptide” (Frontiers in Microbiology, 2020).
≈ marks a conversion by molar mass, not a printed value. Read-outs that look alike come from different tables or passages of the source. Peptide text beside a SMILES is read from it.

Experiments:
Type in all cases: cell-based
[1] = test system: Acinetobacter baumannii (ATCC 17978); assay: microbe, parasite or virus in culture; settings: read-out: Minimal bactericidal concentration (MBC) A. b.
Excerpt: (§1) The pathogenic bacterial strains obtained from the ATCC (United States) and NCTC (National Collection of Type Cultures – England) were the Gram-positive: Enterococcus faecalis (ATCC 29212), Staphylococcus aureus (HNCMO112011), Listeria monocytogenes (ATCC 19111) and the Gram-negative: Pseudomonas aeruginosa (ATCC 27853), Escherichia coli (ATCC 8739), Salmonella enterica (ATCC 13076), Klebsiella pneumoniae (NCTC 13440), Acinetobacter baumannii (ATCC 17978).
(§2) Overnight bacterial cultures grown in LB were diluted and grown to OD600 = 0.2–0.6 at 37°C with shaking. After harvesting and washing bacteria in PPB, the suspensions were adjusted to OD600 = 0.1 corresponding to ∼10^7 bacteria/mL. Antimicrobial activity of the peptides and the antibiotics was determined in PPB in 96 well microplates using 10 μL bacterial suspension and 90 μL of the 2-fold serial dilutions of peptides or antibiotics. Peptides were tested from 25 μM to 0.125 μM whereas the antibiotics; carbenicillin (Cb) from Duchefa Biochemie (Prod.No. C0109.0025) and levofloxacin (Lvx) from Sigma-Aldrich (Prod.No. 28266-10MG-F) from […] to 0.1 μM. The microplates were incubated for 3 h at 37°C with 250 rpm shaking and then 5 μl from each sample was placed on LB agar and the growth of bacteria was monitored after overnight incubation at 37°C. The lowest concentration of the antimicrobial agents, which completely eliminated viable bacteria was the minimal bactericidal concentration (MBC).

[2] = test system: Enterococcus faecalis (ATCC 29212); assay: microbe, parasite or virus in culture; settings: read-out: Minimal bactericidal concentration (MBC) E. f.
Excerpt: as §1, §2

[3] = test system: Escherichia coli (ATCC 8739); assay: microbe, parasite or virus in culture; settings: read-out: Minimal bactericidal concentration (MBC) E. c.
Excerpt: as §1, §2

[4] = test system: Klebsiella pneumoniae (NCTC 13440); assay: microbe, parasite or virus in culture; settings: read-out: Minimal bactericidal concentration (MBC) K. p.
Excerpt: as §1, §2

[5] = test system: Listeria monocytogenes (ATCC 19111); assay: microbe, parasite or virus in culture; settings: read-out: Minimal bactericidal concentration (MBC) L. m.
Excerpt: as §1, §2

[6] = test system: Pseudomonas aeruginosa (ATCC 27853); assay: microbe, parasite or virus in culture; settings: read-out: Minimal bactericidal concentration (MBC) P. a.
Excerpt: as §1, §2

[7] = test system: Salmonella enterica (ATCC 13076); assay: microbe, parasite or virus in culture; settings: read-out: Minimal bactericidal concentration (MBC) S. e.
Excerpt: as §1, §2

[8] = test system: Staphylococcus aureus (HNCMO112011); assay: microbe, parasite or virus in culture; settings: read-out: Minimal bactericidal concentration (MBC) S. a.
Excerpt: as §1, §2

[9] = test system: Acinetobacter baumannii
Excerpt: as §1
(§3) Ca^2+ and Mg^2+ can inhibit the antimicrobial activity of cationic peptides, therefore the MBC and MIC values were also determined in MHB, which unlike PPB contains divalent cations and allows growth of bacteria. Bacteria were grown and prepared similarly except that bacteria were resuspended in MHB. 10 μl of bacteria OD600 = 0.1, supplemented with 45 μl MHB and 45 μl of 2-fold dilution series of peptides, were cultivated for 3 and 20 h at 37°C with shaking. Optical density of each sample was measured (Hidex Sense Microplate Reader with Plate Reader Software version 5064) and 5 μl was placed on LB agar plates after 3 and 20 h treatment. The minimal inhibitory concentration (MIC) corresponded to the lowest concentration, which inhibited growth.

[10] = test system: Escherichia coli
Excerpt: as §1, §3

[11] = test system: Staphylococcus aureus
Excerpt: as §1, §3

[12] = 3 h treatment in PPB (20 mM potassium-phosphate buffer, pH 7.4), 37°C, then plating on LB agar
[13] = MHB, 3 h treatment, 37°C (panel assigned)
[14] = MHB, 20 h cultivation, 37°C, optical density (panel assigned)
[15] = MHB, 20 h treatment, 37°C (panel assigned)

Row | SMILES | MBC ([1]; ATCC 17978, 3 h, pH 7.4) [µM] | MBC ([2]; ATCC 29212, 3 h, pH 7.4) [µM] | MBC ([3]; ATCC 8739, 3 h, pH 7.4) [µM] | MBC ([4]; NCTC 13440, 3 h, pH 7.4) [µM] | MBC ([5]; ATCC 19111, 3 h, pH 7.4) [µM] | MBC ([6]; ATCC 27853, 3 h, pH 7.4) [µM] | MBC ([7]; ATCC 13076, 3 h, pH 7.4) [µM] | MBC ([8]; HNCMO112011, 3 h, pH 7.4) [µM] | MBC in Mueller Hinton Broth, panel (A), A. b. ([9]; 3 h) [µM] | MBC in Mueller Hinton Broth, panel (B), A. b. ([9]; 20 h) [µM] | MIC in Mueller Hinton Broth, panel (C), A. b. ([9]; 20 h) [µM] | MBC in Mueller Hinton Broth, panel (A), E. c. ([10]; 3 h) [µM] | MBC in Mueller Hinton Broth, panel (B), E. c. ([10]; 20 h) [µM] | MIC in Mueller Hinton Broth, panel (C), E. c. ([10]; 20 h) [µM] | MBC in Mueller Hinton Broth, panel (A), S. a. ([11]; 3 h) [µM] | MBC in Mueller Hinton Broth, panel (B), S. a. ([11]; 20 h) [µM] | MIC in Mueller Hinton Broth, panel (C), S. a. ([11]; 20 h) [µM] | further results
1 | CC(C)C[C@H](NC(=O)[C@@H]1CCCN1C(=O)[C@H](CCCNC(=N)N)NC(=O)[C@H](CCCNC(=N)N)NC(=O)[C@H](CS)NC(=O)[C@H](CCC(N)=O)NC(=O)[C@@H](N)CCC(N)=O)C(=O)N[C@@H](Cc1ccc(O)cc1)C(=O)N[C@@H](CS)C(=O)N[C@@H](CCCNC(=N)N)C(=O)N[C@@H](CCCNC(=N)N)C(=O)N[C@@H](CCCNC(=N)N)C(=O)N[C@@H](Cc1c[nH]c2ccccc12)C(=O)N[C@@H](CO)C(=O)N[C@@H](Cc1c[nH]cn1)C(=O)N1CCC[C@H]1C(=O)N[C@@H](CCC(N)=O)C(=O)N[C@@H](Cc1ccccc1)C(=O)N[C@@H](CCC(=O)O)C(=O)N[C@@H](CCCCN)C(N)=O [C, NCR247C-StrepII] (H-QQCRRPLYCRRRWSHPQFEK-NH2; N-terminus assumed) | 25 (≈ 66.9 µg/mL) | >25 | 6.3 (≈ 16.8 µg/mL) | >25 | >25 | 6.3 (≈ 16.8 µg/mL) | >25 | 6.3 (≈ 16.8 µg/mL) | > 25 | >25 | >25 | > 25 | >25 | >25 | > 25 | >25 | >25 | 
2 | CSCC[C@H](NC(=O)[C@H](CCCCN)NC(=O)[C@H](Cc1ccccc1)NC(=O)[C@H](CC(N)=O)NC(=O)[C@H](CC(C)C)NC(=O)[C@@H]1CCCN1C(=O)[C@@H](N)CCCNC(=N)N)C(=O)N[C@@H](CC(C)C)C(=O)N[C@@H](CCCNC(=N)N)C(=O)N[C@@H](Cc1ccccc1)C(=O)N[C@@H](Cc1c[nH]c2ccccc12)C(=O)NCC(=O)N[C@@H](CCC(N)=O)C(=O)N[C@@H](CCC(N)=O)C(=O)N[C@@H](CCC(N)=O)C(=O)N[C@@H](CS)C(=O)N[C@@H](CCCNC(=N)N)C(=O)N[C@@H](CCCNC(=N)N)C(=O)N1CCC[C@H]1C(=O)N[C@@H](CC(C)C)C(=O)N[C@@H](Cc1ccc(O)cc1)C(=O)N[C@@H](CS)C(=O)N[C@@H](CCCNC(=N)N)C(=O)N[C@@H](CCCNC(=N)N)C(=O)N[C@@H](CCCNC(=N)N)C(=O)N[C@@H](Cc1c[nH]c2ccccc12)C(=O)N[C@@H](CO)C(=O)N[C@@H](Cc1c[nH]cn1)C(=O)N1CCC[C@H]1C(=O)N[C@@H](CCC(N)=O)C(=O)N[C@@H](Cc1ccccc1)C(=O)N[C@@H](CCC(=O)O)C(=O)N[C@@H](CCCCN)C(N)=O [E, X1-NCR247C-StrepII] (H-RPLNFKMLRFWGQQQCRRPLYCRRRWSHPQFEK-NH2; N-terminus assumed) | 3.1 (≈ 13.5 µg/mL) | 12.5 (≈ 54.4 µg/mL) | 3.1 (≈ 13.5 µg/mL) | 6.3 (≈ 27.4 µg/mL) | 3.1 (≈ 13.5 µg/mL) | 3.1 (≈ 13.5 µg/mL) | 3.1 (≈ 13.5 µg/mL) | 3.1 (≈ 13.5 µg/mL) | 12.5 (≈ 54.4 µg/mL) | 6.3 (≈ 27.4 µg/mL) | 6.3 (≈ 27.4 µg/mL) | 25 (≈ 109 µg/mL) | 6.3 (≈ 27.4 µg/mL) | 6.3 (≈ 27.4 µg/mL) | 25 (≈ 109 µg/mL) | 6.3 (≈ 27.4 µg/mL) | 6.3 (≈ 27.4 µg/mL) | 
3 | CC[C@H](C)[C@H](NC(=O)[C@H](CCCCN)NC(=O)[C@H](CCCCN)NC(=O)[C@H](C)NC(=O)[C@H](CC(C)C)NC(=O)[C@H](C)NC(=O)[C@H](C)NC(=O)[C@H](CC(C)C)NC(=O)[C@H](C)NC(=O)[C@H](CCCCN)NC(=O)[C@H](CC(C)C)NC(=O)[C@H](CC(N)=O)NC(=O)[C@@H](NC(=O)[C@H](CCCCN)NC(=O)CNC(=O)[C@H](CC(C)C)NC(=O)[C@H](CC(C)C)NC(=O)[C@H](Cc1ccc(O)cc1)NC(=O)CNC(=O)[C@H](C)NC(=O)[C@H](CO)NC(=O)[C@H](CC(N)=O)NC(=O)[C@H](CC(C)C)NC(=O)[C@@H](NC(=O)[C@H](Cc1c[nH]c2ccccc12)NC(=O)CN)[C@@H](C)O)[C@@H](C)CC)C(=O)N[C@@H](CC(C)C)C(N)=O [J, Transportan, reference compound] |  |  |  |  |  |  |  |  |  |  |  |  |  |  |  |  |  | MBC [1, 12]: 1.6 µM (≈ 4.54 µg/mL); MBC [2, 12]: 3.1 µM (≈ 8.81 µg/mL); MBC [3, 12]: 3.1 µM (≈ 8.81 µg/mL); MBC [4, 12]: 3.1 µM (≈ 8.81 µg/mL); MBC [5, 12]: 3.1 µM (≈ 8.81 µg/mL); MBC [6, 12]: 3.1 µM (≈ 8.81 µg/mL); MBC [7, 12]: 1.6 µM (≈ 4.54 µg/mL); MBC [8, 12]: 3.1 µM (≈ 8.81 µg/mL); MBC in Mueller Hinton Broth, panel (A), A. b. [9, 13]: 3.1 µM (≈ 8.81 µg/mL); MIC in Mueller Hinton Broth, panel (C), A. b. [9, 14]: 3.1 µM (≈ 8.81 µg/mL); MBC in Mueller Hinton Broth, panel (B), A. b. [9, 15]: 3.1 µM (≈ 8.81 µg/mL); MBC in Mueller Hinton Broth, panel (A), E. c. [10, 13]: 6.3 µM (≈ 17.9 µg/mL); MIC in Mueller Hinton Broth, panel (C), E. c. [10, 14]: 3.1 µM (≈ 8.81 µg/mL); MBC in Mueller Hinton Broth, panel (B), E. c. [10, 15]: 6.3 µM (≈ 17.9 µg/mL); MBC in Mueller Hinton Broth, panel (A), S. a. [11, 13]: 6.3 µM (≈ 17.9 µg/mL); MIC in Mueller Hinton Broth, panel (C), S. a. [11, 14]: 3.1 µM (≈ 8.81 µg/mL); MBC in Mueller Hinton Broth, panel (B), S. a. [11, 15]: 3.1 µM (≈ 8.81 µg/mL)
